Test results taken from US12077503B2, “Substituted cyclic amides and their use as herbicides” (FMC CORPORATION, priority 2015, dated 2024).

What was measured:
Type in all cases: in vivo
[1] = test system: ducksalad (Heteranthera limosa); test: Test B flooded paddy test; conditions: Heteranthera limosa, 250 g ai/ha, Flood; 0 to 100 scale where 0 is no effect and 100 is complete control; read-out: Ducksalad plant response rating
Method in brief: (§1)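 Percent control, visually estimated after 13–15 d in the greenhouse on a 0–100 basis, compares treated pots with untreated ones; compound was put into paddy water 3 cm above the soil when plants had two leaves.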

[2] = test system: sedge, umbrella (small-flower umbrella sedge, Cyperus difformis); test: Test B flooded paddy test; conditions: Cyperus difformis, 250 g ai/ha, Flood; 0 to 100 scale where 0 is no effect and 100 is complete control; read-out: Sedge, Umbrella plant response rating
Method in brief: as §1

rice (Oryra sativa) = test: Test B flooded paddy test; conditions: Oryza sativa, 250 g ai/ha, Flood; 0 to 100 scale where 0 is no effect and 100 is complete control; read-out: Rice plant response rating
Method in brief: as §1

[3] = test system: barnyardgrass (Echinochloa crus-galli); test: Test B flooded paddy test; conditions: Echinochloa crus-galli, 250 g ai/ha, Flood; 0 to 100 scale where 0 is no effect and 100 is complete control; read-out: Barnyardgrass plant response rating
Method in brief: as §1

[4] = test system: ryegrass, Italian (Italian ryegrass, Lolium multiflorum); test: Test A preemergence; conditions: Lolium multiflorum, pre-emergence, 240 h, Preemergence
Method in brief: (§2)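 Preemergence soil spray on seeded pots or post-emergence spray on 1–2 leaf plants, in loam–sand blend. Greenhouse ~10 d. Visual rating 0–100 against untreated plants.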

[5] = test system: giant foxtail (Setaria faberii); test: Test A preemergence; conditions: Setaria faberi, pre-emergence, 240 h, Preemergence
Method in brief: as §2

Kochia (Kochia scoparia) [6] = test: Test A preemergence; conditions: Bassia scoparia, pre-emergence, 240 h, Preemergence
Method in brief: as §2

[7] = test system: barnyardgrass (Echinochloa crus-galli); test: Test A preemergence; conditions: Echinochloa crus-galli, pre-emergence, 240 h, Preemergence
Method in brief: as §2

[8] = test system: pigweed (Amaranthus retroflexus); test: Test A preemergence; conditions: Amaranthus retroflexus, pre-emergence, 240 h, Preemergence
[9] = test system: ragweed (common ragweed, Ambrosia elatior); test: Test A preemergence; conditions: Ambrosia artemisiifolia, pre-emergence, 240 h, Preemergence
Method in brief: as §2

[10] = test system: ryegrass, Italian (Italian ryegrass, Lolium multiflorum); test: Test A postemergence; conditions: Lolium multiflorum, post-emergence, 240 h, Postemergence, read-out: Plant response rating, Ryegrass, Italian
Method in brief: as §2

[11] = test system: giant foxtail (Setaria faberii); test: Test A postemergence; conditions: Setaria faberi, post-emergence, 240 h, Postemergence, read-out: Plant response rating, Foxtail, Giant
Method in brief: as §2

corn (Zea mays) = test: Test A postemergence; conditions: Zea mays, post-emergence, 240 h, Postemergence
Method in brief: as §2

[12] = test system: blackgrass (Alopecurus myosuroides); test: Test A postemergence; conditions: Alopecurus myosuroides, post-emergence, 240 h, Postemergence, read-out: Plant response rating, Blackgrass
Method in brief: as §2

Kochia (Kochia scoparia) [13] = test: Test A postemergence; conditions: Bassia scoparia, post-emergence, 240 h, Postemergence, read-out: Plant response rating, Kochia
Method in brief: as §2

[14] = test system: wheat (Triticum aestivum); test: Test A postemergence; conditions: Triticum aestivum, post-emergence, 240 h, Postemergence, read-out: Plant response rating, Wheat
Method in brief: as §2

[15] = test system: Galium (catchweed bedstraw, Galium aparine); test: Test A postemergence; conditions: Galium, post-emergence, 240 h, Postemergence, read-out: Plant response rating, Galium
Method in brief: as §2

[16] = test system: barnyardgrass (Echinochloa crus-galli); test: Test A postemergence; conditions: Echinochloa crus-galli, post-emergence, 240 h, Postemergence, read-out: Plant response rating, Barnyardgrass
Method in brief: as §2

[17] = test system: pigweed (Amaranthus retroflexus); test: Test A postemergence; conditions: Amaranthus retroflexus, post-emergence, 240 h, Postemergence, read-out: Plant response rating, Pigweed
Method in brief: as §2

[18] = test system: ragweed (common ragweed, Ambrosia elatior); test: Test A postemergence; conditions: Ambrosia artemisiifolia, post-emergence, 240 h, Postemergence, read-out: Plant response rating, Ragweed
Method in brief: as §2

[19] = 125 g ai/ha, visual injury after approximately 10 d, 0 to 100 scale where 0 is no effect and 100 is complete control
[20] = 31 g ai/ha, visual injury after approx. 10 d, 0 to 100 scale, 0 no effect, 100 complete control

CSc1ccccc1NC(=O)[C@H]1C(=O)N(C2CC2)CC[C@@H]1c1ccc(F)cc1 [Compound 1005]
0%: pest or weed control at 250 g/ha [1] | pest or weed control at 250 g/ha [2] | pest or weed control at 250 g/ha (rice (Oryra sativa)) | pest or weed control at 250 g/ha [3] | pest or weed control at 31 g/ha ([4]; 31 g ai/ha, 0 to 100 scale where 0 is no effect and 100 is complete control, read-out: Ryegrass, Italian plant response rating) | pest or weed control at 125 g/ha ([4]; 125 g ai/ha, visual injury rating after approximately 10 d, read-out: Ryegrass, Italian plant response rating (0 to 100 scale, 0 is no effect, 100 is complete control)) | pest or weed control at 125 g/ha ([5]; 125 g ai/ha, visual injury rating after approximately 10 d, read-out: Foxtail, Giant plant response rating (0 to 100 scale, 0 is no effect, 100 is complete control)) | pest or weed control at 31 g/ha ([5]; 31 g ai/ha, 0 to 100 scale (0 no effect, 100 complete control), read-out: Plant response rating, Foxtail, Giant) | pest or weed control at 31 g/ha (Kochia (Kochia scoparia) [6]; 31 g ai/ha, 0 to 100 scale where 0 is no effect and 100 is complete control, read-out: Kochia plant response rating) | pest or weed control at 125 g/ha (Kochia (Kochia scoparia) [6]; 125 g ai/ha, visual injury rating after approximately 10 d, read-out: Kochia plant response rating (0 to 100 scale, 0 is no effect, 100 is complete control)) | pest or weed control at 125 g/ha ([7]; 125 g ai/ha, visual injury rating after approximately 10 d, read-out: Barnyardgrass plant response rating (0 to 100 scale, 0 is no effect, 100 is complete control)) | pest or weed control at 31 g/ha ([7]; 31 g ai/ha, 0 to 100 scale (0 no effect, 100 complete control), read-out: Plant response rating, Barnyardgrass) | pest or weed control at 31 g/ha ([8]; 31 g ai/ha, 0 to 100 scale where 0 is no effect and 100 is complete control, read-out: Pigweed plant response rating) | pest or weed control at 125 g/ha ([8]; 125 g ai/ha, visual injury rating after approximately 10 d, read-out: Pigweed plant response rating (0 to 100 scale, 0 is no effect, 100 is complete control)) | pest or weed control at 31 g/ha ([9]; 31 g ai/ha, 0 to 100 scale where 0 is no effect and 100 is complete control, read-out: Ragweed plant response rating) | pest or weed control at 125 g/ha ([9]; 125 g ai/ha, visual injury rating after approximately 10 d, read-out: Ragweed plant response rating (0 to 100 scale, 0 is no effect, 100 is complete control)) | pest or weed control at 125 g/ha [10, 19] | pest or weed control at 31 g/ha [10, 20] | pest or weed control at 125 g/ha [11, 19] | pest or weed control at 31 g/ha [11, 20] | Corn plant response rating (crop injury, 0 = no effect, 100 = complete kill) at 125 g/ha (corn (Zea mays); [19]) | Corn plant response rating (crop injury, 0 = no effect, 100 = complete kill) at 31 g/ha (corn (Zea mays); [20]) | pest or weed control at 125 g/ha [12, 19] | pest or weed control at 31 g/ha [12, 20] | pest or weed control at 125 g/ha (Kochia (Kochia scoparia) [13]; [19]) | pest or weed control at 31 g/ha (Kochia (Kochia scoparia) [13]; [20]) | plant injury at 125 g/ha [14, 19] | plant injury at 31 g/ha [14, 20] | pest or weed control at 125 g/ha [15, 19] | pest or weed control at 31 g/ha [15, 20] | pest or weed control at 125 g/ha [16, 19] | pest or weed control at 31 g/ha [16, 20] | pest or weed control at 125 g/ha [17, 19] | pest or weed control at 31 g/ha [17, 20] | pest or weed control at 125 g/ha [18, 19] | pest or weed control at 31 g/ha [18, 20]
